Experimental data from patent publication US20090221576A1, “Pharmaceutical Use of 2-Hydroxy-3-[5-(Morpholin-4-Ylmethyl) Pyridin-2-YL]-1H-IN-Dole-5-Carbonitrile as a Free Base or Salts” (ASTRAZENECA AB GLOBAL INTELLECTUAL PROPERTY, priority 2006, published 2009).

Tested on: Han Wistar rats
Experiment: Increased bone formation in rats, four-week oral gavage study, light microscopy of femur, femorotibial joint and sternum
Type: in vivo, rat
Description: Male and female Han Wistar rats were dosed by oral gavage, at dosages of 15, 55 or 100 μmol/kg/day for four weeks and compared to vehicle controls. Complete necropsies were performed and the tissues preserved in 10% formalin. The femur, femorotibial joint and sternum were decalcified, embedded in paraffin, sectioned at 5 μm thickness and stained with hematoxylin and eosin.

[1] = rat, 100 μmol/kg for 4 weeks, vs vehicle-treated control rat (FIG. 1a)

| SMILES | bone formation as evaluated by light microscopy (male and female Han Wistar rats, oral gavage, 100 μmol/kg dose level, four weeks, vs vehicle controls, femur, femorotibial joint, sternum, H&E) | formation of osteoid in the femur (epiphysis), FIG. 1b [1] | number of osteoblasts in the femur (epiphysis), FIG. 1b [1] |
| --- | --- | --- | --- |
| N#Cc1ccc2[nH]c(O)c(-c3ccc(CN4CCOCC4)cn3)c2c1.O=C(O)CC(O)(CC(=O)O)C(=O)O [Example 1, 2-Hydroxy-3-[5-(morpholin-4-ylmethyl)pyridin-2-yl]1H-indole-5-carbonitrile citrate salt] | increased bone formation in the form of thickened trabeculae, thickened cortical bone, periosteal hyperostosis and increased number of osteoblasts | – | – |
| N#Cc1ccc2[nH]c(O)c(-c3ccc(CN4CCOCC4)cn3)c2c1 [compound (I), 2-hydroxy-3-[5-(morpholin-4-ylmethyl)pyridin-2-yl]1H-indole-5-carbonitrile] | – | marked increase in formation of osteoid | increased number of osteoblasts |
